These results are taken from a melting point compilation (Tetko et al.; mined from patent text by program, amines drawn as free bases though some values may be those of a salt).

The term melting point denotes the temperature of the solid-liquid transition. Regarding `CC1(C(=O)C(C(O)C(Cl)(Cl)CCl)n2cncn2)CC1` (stereo not drawn), the melting point is 182 to 186 °C.
The result for `COc1ccc(-c2[nH]nc3c2C(=O)c2c(NC(=O)Cc4ccccc4OC)cccc2-3)cc1` reads 255 °C.
The result for `O=C1CCN(c2ccc(S(=O)(=O)NCc3ccccc3)cc2)CC1` reads 136 to 140 °C; that for `N#Cc1ccc(C2C3=C(CCCC3)NC3=C2C(=O)CCC3)cc1C(F)(F)F` (stereo not drawn), 210 to 212 °C; that for `O=C(CCSC(=S)Nc1ccc(Cl)cn1)c1ccccc1`, 159 °C.
As for `COc1ccc2c(c1)CCC1C2CCC2(C)C(=O)C(Br)CC12` (stereo not drawn), the melting point lay in the range of 146 to 149 °C.
In the case of `CC1=Nc2ccccc2CC(c2cccs2)N1C` (stereo not drawn), the melting point lay in the range of 106 to 108 °C.
The value for `COc1ccc(-c2cc(=O)n(CCc3ccccc3)nc2-c2ccc(OC)cc2)cc1` was 140 °C; that for `C[C@@H](O)C(=O)NC[C@H]1CCc2ccc(S(=O)(=O)c3ccccc3)cc2O1` was 130 to 132 °C; that for `CCc1c(OC)nc(OC)nc1C(=O)c1cc(C)cc(C=CC#N)c1` was 165 to 166 °C.
The result for `CCN(CC)c1ccc(C=C2Cc3ccccc3C2=O)c(C)c1` reads 134 °C; that for `CC(C)(C)c1cc(Cn2nc(-c3ccccc3)oc2=O)cc(C(C)(C)C)c1O`, 164 °C.
`Cc1c(C(=O)Nc2ccc(OC3CCN(Cc4ccccc4)CC3)c(C#N)c2)cnn1-c1ccc(Cl)cc1` returned a melting point of 194 °C.
The result for `CCOCc1nc2c(N)nc3ccc(OCc4ccccc4)cc3c2n1CCCCNC(=O)N1CCOCC1` reads 150 to 153 °C; that for `CSc1ccc(C(C)Nc2nc(N)nc(C(F)(F)F)n2)cc1` (stereo not drawn), 111 °C.
The result for `CCCCC1=C(C#N)N(O)CS1` reads 118 to 120 °C.
As for `c1ccc(-c2nnc3c4c(c(OCc5ccccn5)nn23)CCCC4)cc1`, the melting point is 194 °C.
The value for `CON=C(CCC(=O)O)c1ccc(-c2ccc(Cl)cc2)cc1` was 183 to 186 °C.
The compound `O=[N+]([O-])c1cc(-c2cnc3ccccn23)cc(O)c1O` displayed a melting point of 110 °C.
The result for `O=C1C=CC(OC2CCCC2)N1S(=O)(=O)c1ccccc1` (stereo not drawn) reads 123 to 124 °C; that for `CCn1nc(C)c(N)c1C(N)=O`, 143 to 145 °C; that for `CCOC(=O)OC1=C(c2c(C)cc(C)cc2C)C(=O)SC12CCN(OC)CC2`, 87 to 89 °C.
The compound `CC/C(=C(\c1ccc(/C=C/C(=O)O)cc1)c1ccc(OC(=O)OC)cc1)c1ccccc1` yielded a melting point of 140 to 142 °C.
In turn, `Nc1ccc(I)cc1C=O` showed a melting point of 105 °C.
`CCOC(=O)c1cc(OC(C)=O)c2cc(N3CCOCC3)ccc2c1` came in with a melting point of 135 to 137 °C.
The value for `O=C1NC(=O)C2(CC(O)c3ccc(F)cc32)N1` (stereo not drawn) was 209 to 211 °C; that for `Clc1ccc2nc(Cl)nc(-c3ccccc3)c2c1` was 159 to 160 °C.
The result for `CCC(=O)NCC1CCC(Nc2nc3c(s2)CCOc2ccccc2-3)CC1` (stereo not drawn) reads 56 to 60 °C; that for `CSc1cnc(NC(=O)c2cccc(OC(C)=O)c2)s1`, 135 to 136 °C.
The result for `CC(C)c1ccc(-n2c(CC(=O)O)c(C(=O)O)c3cc(Oc4cccc(Cl)c4)ccc32)cc1` reads 176 to 182 °C.
On to `COC(=O)[C@H](Cc1ccc(OCCNC(=O)OC(C)(C)C)cc1)NC(=O)OCc1ccccc1`, for which the melting point lay within 89 to 91 °C.
The result for `O=C(Nc1nc(C(Cl)(Cl)Cl)ns1)c1ccccc1F` reads 149 °C.
The result for `Cn1cncc1C(O)(c1ccc(Cl)cc1)c1ccc2c(c1)C(c1cccc(Cl)c1)=NCC(=O)N2` (stereo not drawn) reads 200 °C; that for `CC(C)(C)c1ccc(CN(CCOc2cccc(N)c2N)C(=O)C(F)(F)F)cc1`, 72 to 74 °C; that for `COC(=O)C1Sc2cc(OCc3ccccc3)ccc2OCC1=O` (stereo not drawn), 101 to 102 °C.
The value for `CCOCN1C2=C(C(=O)CCC2)C(c2cccc([N+](=O)[O-])c2)C2=C1CCCC2=O` was 222 °C.
As for `CS(=O)(=O)c1ccc(-c2c(-c3ccc(F)cc3)nn3c(-c4ccc(F)cc4)coc23)cc1`, the melting point lay in the range of 289 to 291 °C.
The value for `CS(=O)(=O)OCCn1c2ccc(O)cc2c2c3c(c(-c4ccccc4)cc21)C(=O)NC3=O` was 271 to 276 °C.
Turning to `COc1nc2ccccc2cc1NC(=O)N1CCN(c2cc(F)cc(F)c2)CC1`, the melting point lay within 158 to 159 °C.
The result for `COc1c(C)c(OC(=O)c2c(C)c(C)c(OCCCN3C(=O)c4ccccc4S3(O)O)c(C)c2OC)c(C)c(C)c1C(=O)O` reads 222 to 223 °C; that for `CN(C)C1N(C)C(=O)NC(=O)N1c1cc(OCc2ccccc2)c(Cl)cc1F` (stereo not drawn), 193 to 194 °C; that for `O=C(Nc1cc(C(F)(F)F)on1)c1ccccc1`, 152 to 154 °C.
`Cc1oc2ccccc2c1C(=O)c1ccc(Cl)c(S(N)(=O)=O)c1`: the melting point came out at 183 °C.
`COC(=O)Nc1cc(OC)c(-c2ccc(C[C@H](NC(=O)c3c(Cl)cccc3Cl)C(=O)O)cc2)c(OC)c1` had a melting point of 235 to 236 °C.
The result for `O=c1[nH]c2cc([N+](=O)[O-])c3c(c2[nH]c1=O)CN(S(=O)(=O)c1cccs1)CC3` reads more than 300 °C; that for `Nc1cc2c(cc1[N+](=O)[O-])OCO2`, 199 to 201 °C; that for `Cc1ccc(S(=O)(=O)N2CCCCC2)cc1`, 148 to 150 °C.
The result for `CCOc1nc(Nc2ccc(F)c(F)c2)nc(NC2CCN(S(=O)(=O)c3ccc(F)cc3)CC2)n1` reads 240 to 242 °C; that for `O=C(O)c1cccc(-c2cccn3c(=O)n(Cc4cccc(C(F)(F)F)c4)nc23)c1`, 218 to 222 °C; that for `CCOC(=O)c1nnn(Cc2ccccc2)c1N`, 153 °C.
The value for `O=C(Nc1cccnc1Nc1ccc(CCNC[C@H](O)COc2ccc(O)cc2)cc1)c1ccccc1` was 97 to 99 °C.
`CC(C)c1ccc(S(=O)(=O)O)cc1` showed a melting point of 35.2 to 36.7 °C.
The value for `COc1cc(CCNC(=O)[C@@H](NS(C)(=O)=O)C(C)C)ccc1OCC#Cc1ccccc1` was 130 to 132 °C.
The value for `O=C(CNC(=O)c1ccc(F)cc1)c1ccoc1` was 142 to 143 °C; that for `CC(C)Oc1ccc2c(c1)N(C)C(=O)N(c1ccc(Cl)cc1)S2(=O)=O` was 157 to 159 °C.
The result for `COc1cc(OC)cc(-c2ccc(N(C)CCN(C)c3ccc(-c4cc(OC)cc(OC)c4)nc3)cn2)c1` reads 139 to 141 °C.
In turn, `COCCOc1cc(N)c(Cl)cc1C(=O)NCC12CCCN(CCC1)C2` yielded a melting point of 154 to 156 °C.
`CNS(=O)(=O)OCCOc1ccc(-n2ccnc2)cc1`: the melting point is 85 to 88 °C.
With `CC1CCC2(OC1)OC1CC3C4CCC5CC(O[Si](C)(C)C)CCC5(C)C4CCC3(C)C1C2C` (stereo not drawn), the melting point was 197 to 198 °C.
The result for `Cc1c(C(N)=O)c2ccccc2n2c(N(C)C)nc(-c3noc(C4CC4)n3)c12` reads 190 to 192 °C; that for `OCc1nc(-c2cccs2)cs1`, 113 to 114 °C; that for `c1ccc(Oc2nnns2)cc1`, 35 to 36 °C.
For `CCCCC1CCc2c(OCc3ccc4ccccc4n3)cccc2C1O` (stereo not drawn), the melting point was 130 to 133 °C.
The result for `CC(C#N)c1ccc2oc(=S)[nH]c2c1` (stereo not drawn) reads 173 to 176 °C.
The value for `CC(C)(C)OC(=O)N1CCC(C2=C(C#N)C(c3cccc4nonc34)c3c[nH]nc3N2)CC1` (stereo not drawn) was 226 °C; that for `CN(C)C(N)=Nc1cc(Cl)ccc1N1CCOCC1` was 135 to 138 °C.
The result for `CC(C)c1csc(/C=C/c2cccc(NC(=O)Cc3cccc(CC(=O)O)c3)c2)n1` reads 122 to 124 °C; that for `CCCC(Cc1ccc(OCCN2CCOCC2)cc1)(C(=O)NO)S(=O)(=O)c1ccc(OC)cc1` (stereo not drawn), 101 °C; that for `COc1ccc(CN2C(=O)[C@H](CO)[C@H]2S(=O)(=O)C(C)(C)C)cc1`, 121 to 122 °C.
On to `O=C(O)COc1ccc(SCc2ccc(OCc3ccccc3)cc2)c2c1CCC2`, for which the melting point lay within 145 to 147 °C.
The result for `CC(=O)c1cccc(N2CCN(CCCCOc3ccc4ccc(=O)[nH]c4n3)CC2)c1Cl` reads 108 to 110 °C; that for `COc1cccc(-c2ccc3c(c2)CC[C@H]2N(C)C(=O)CC[C@]32C)c1`, 140 °C.
On to `CC(=O)C1=C(O)c2ccc3ccccc3c2S(=O)(=O)N1`, for which the melting point lay within 191 to 192 °C.
The result for `O=c1ccccn1C1c2cc(S(=O)c3ccccc3)ccc2OCCC1O` (stereo not drawn) reads 181 to 184 °C; that for `COc1ccc2c(c1)C(c1ccccc1)NC(=S)N2CC1CC1` (stereo not drawn), 146 to 147 °C; that for `COc1cc(OC)cc(-c2nc[nH]c2-c2ccc(OC)c(N)c2F)c1`, 118 to 120 °C.
`CC(=O)OC(C(Oc1ccc(Cl)cc1)n1cncn1)C(C)(C)CCl` (stereo not drawn) displayed a melting point of 111 to 117 °C.
The result for `C[C@@H]1[C@H](O[Si](C)(C)C(C)(C)C)[C@@H](C)C(S(=O)(=O)c2ccccc2)=C[C@H]1O` reads 107 to 108 °C; that for `O=c1[nH][nH]c(=O)n1-c1cc(Cl)cc(Cl)c1`, 260 °C; that for `CN(C(=O)Nc1nc(OCC(F)(F)F)cc(OCC(F)(F)F)n1)c1ccc(C(F)(F)F)s1`, 99 to 101 °C.
The result for `CCCCCCCCCCOc1cc(C(=O)O)c(OCCCCCCCCCC)cc1C(=O)O` reads 136 to 137 °C; that for `O=C1Nc2ccc(Cl)cc2C1(c1ccccc1)c1ccccc1`, 281 °C.
The value for `CCCC(=CC(=O)O)CCC` was 20 °C; that for `CCOC(=O)Cc1ccc(C(=O)c2ccc(Cl)cc2)n1C` was 74 to 76 °C.
Compound `CC1=CC(N)=NC(c2ccccc2C(F)(F)F)N1c1n[nH]c2ccccc12` (stereo not drawn) yielded a melting point of 235 to 237 °C.
The result for `Cc1c(F)cccc1Cc1c(-c2ccccc2)c2ccccn2c1C(=O)N1CCN[C@@H](CC(=O)NCC2CCOCC2)C1` reads 147 °C; that for `CC(C)(OCc1cc2nc(Cl)ccc2n1S(=O)(=O)c1cccc2ccccc12)C(=O)O`, 209 °C; that for `COc1cc(NC(=O)OC(C)(C)C)c([N+](=O)[O-])cc1I`, 171 °C.
